The source of these data is patent publication US7897727B2, “Bioactive peptide for cell adhesion” (University of Delaware, priority 2000, dated 2011).

“Also recorded” adds a separate entry of the source. No end group written: not given here.

Experiment [1] deals with marrow stromal cells HS27a. The experiment in a line: Cell adhesion assay on coated 96 well plates (MTS), HS27a cells. Format: cell-based. Conditions: peptide conjugated to BSA coated on MAXISORP plates; 1 hr attachment at 37° C.; serum-free RPMI 1640. How it is done:
(§1) Concentrated stocks of rat-tail type I collagen were diluted to designated concentrations in 0.02 N acetic acid and coated overnight on MAXISORP® 96 well plates at room temperature (RT). Poly-L-lysine (PLL), heat-denatured bovine serum albumin (BSA), the peptide of SEQ ID NO:1 conjugated to BSA (indicated in FIGS. 4-7 as “PLN4”) and a scrambled peptide from domain IV of perlecan having the amino acid sequence TGKSVGGSLIWPVRGQH (SEQ ID NO:4) conjugated to BSA (indicated in FIGS. 4-7 as “PLN4*”) were diluted in 1×phosphate buffered saline (PBS) and also coated overnight on MAXISORP® 96 well plates at RT. The following day, the plates were washed three times with 1×PBS to remove any residue and blocked with 1% heat-denatured BSA for 1 hr at 37° C. Following blocking, plates were washed once with 1×PBS. Cells from various cell lines were harvested with 0.5 mM EDTA and collected by centrifugation. Pelleted cells were resuspended in serum-free RPMI 1640 and plated at a concentration of 2.5×10^4 cells per 100 μl. Cells were allowed to attach to the wells for 1 hr at 37° C. Next, the wells were washed once with 1% heat-denatured BSA to remove any unattached cells. Cell adhesion was quantified as in Example 1, using the CELLTITER 96® AQueous Non-Radioactive Cell Proliferation Assay (MTS). […] Following incubation, an Elisa plate reader was used to measure optical density. […]

A further experiment concerns PC3 cells. The experiment in a line: Cell adhesion assay on coated 96 well plates (MTS), PC3 cells. Format: cell-based. Conditions: peptide conjugated to BSA coated on MAXISORP plates; 1 hr attachment at 37° C.; serum-free RPMI 1640. Here is the method:
as §1

The test system of the next experiment is marrow stromal cells HS5. The experiment in a line: Cell adhesion assay on coated 96 well plates (MTS), HS5 cells. Format: cell-based. Conditions: peptide conjugated to BSA coated on MAXISORP plates; 1 hr attachment at 37° C.; serum-free RPMI 1640. Here is the method: as §1
A further experiment has as its system HES cells. As to the kind of experiment: Cell adhesion assay on coated 96 well plates (MTS), HES cells. Format: cell-based, human. Conditions: peptide conjugated to BSA coated on MAXISORP plates; 1 hr attachment at 37° C.; serum-free RPMI 1640. Here is the method:
as §1

Experiment [2] concerns multipotent mouse mesenchymal stem cells, 10T1/2. As to the kind of experiment: Cell adhesion of 10T1/2 cells to coated plastic (CELLTITER 96 MTS assay). Format: cell-based. Here is the method:
Adhesion is measured by the cell proliferation assay CELLTITER 96® AQueous Non-Radioactive Cell Proliferation Assay (MTS) sold by Promega, Inc. The CELLTITER 96® AQueous Non-Radioactive Cell Proliferation Assay is a calorimetric method for determining the number of viable cells in proliferation, cytotoxicity or chemosensitivity assays. The CELLTITER 96® AQueous Non-Radioactive Cell Proliferation Assay is composed of solutions of a tetrazolium compound (3-(4,5-dimethylthiazol-2-yl)-5-(3-carboxymethoxyphenyl)-2-(4-su-lfophenyl)-2H-tetrazolium, inner salt; MTS) and an electron coupling reagent (phenazine methosulfate) PMS. MTS is bioreduced by cells into a formazan that is soluble in tissue culture medium. The absorbance of the formazan at 490 nm can be measured directly from 96 well assay plates without additional processing. The conversion of MTS into the aqueous soluble formazan is accomplished by dehydrogenase enzymes found in metabolically active cells. The quantity of formazan product as measured by the amount of 490 nm absorbance is directly proportional to the number of living cells in culture.
No adhesion to uncoated plastic occurred during the 30 minute time period of this study. BSA (bovine serum albumin) and poly-L-lysine (PLL) were used as coating controls. Collagen I, a known adhesive protein substrate for these cells, served as positive control. […]
A general note: Formazan colour is commonly taken as a measure of viable cells.

Take “TGKSVGGSLIWPVRGQH (also: conjugated to BSA) [PLN4*, scrambled peptide from domain IV of perlecan, conjugated to BSA, reference compound]”: the “cell adhesion / attachment and spreading, HS27a cells” value in experiment [1] is “cell attachment and spreading did not occur”. Also, in the experiment with PC3 cells, the “cell adhesion / attachment and spreading, PC3 cells” value was “cell attachment and spreading did not occur”. In addition, the “cell adhesion / attachment and spreading, HS5 cells” value with marrow stromal cells HS5 is “cell attachment and spreading did not occur”. Besides, in the experiment on HES cells, the “cell adhesion / attachment and spreading, HES cells” value is “cell attachment and spreading did not occur”.
As to “TWSKVGGHLRPGIVQSG (also: conjugated to BSA; listed as Homo sapiens) [PLN4, adhesive polypeptide derived from domain IV of perlecan; tested conjugated to BSA]”, in experiment [1], the “cell adhesion / attachment and spreading, HS27a cells” value was “did not bind to the peptide”. Moreover, the “cell adhesion / attachment and spreading, PC3 cells” value in the experiment with PC3 cells was “best adhesion and rapid focal adhesion formation of these four cell types”. Moreover, the “cell adhesion / attachment and spreading, HS5 cells” value in the experiment with marrow stromal cells HS5 is given as “did not bind to the peptide”. Besides, the “adhesion of 10T1/2 cells” value in experiment [2] (peptide conjugated to BSA, coated onto plastic, 30 minute time period, MTS absorbance 490 nm, listed as SEQ ID NO:1) is recorded as “consistently strong; also recorded: best adhesion of the cell types reported herein”. Also, the “focal adhesion formation of 10T1/2 cells (photomicrographs)” value in experiment [2] (plastic coated with BSA conjugated to the polypeptide) is on record as “adhesion is followed by focal adhesion formation”. Besides, in the experiment with HES cells, the “cell adhesion / attachment and spreading, HES cells” value is “best adhesion and rapid focal adhesion formation of these four cell types”.
